≈ marks a conversion by molar mass, not a printed value.

Data set [1] deals with T1, Serine/threonine-protein kinase 17B (Homo sapiens, UniProt O94768).
T1 sequence (O94768 whole entry): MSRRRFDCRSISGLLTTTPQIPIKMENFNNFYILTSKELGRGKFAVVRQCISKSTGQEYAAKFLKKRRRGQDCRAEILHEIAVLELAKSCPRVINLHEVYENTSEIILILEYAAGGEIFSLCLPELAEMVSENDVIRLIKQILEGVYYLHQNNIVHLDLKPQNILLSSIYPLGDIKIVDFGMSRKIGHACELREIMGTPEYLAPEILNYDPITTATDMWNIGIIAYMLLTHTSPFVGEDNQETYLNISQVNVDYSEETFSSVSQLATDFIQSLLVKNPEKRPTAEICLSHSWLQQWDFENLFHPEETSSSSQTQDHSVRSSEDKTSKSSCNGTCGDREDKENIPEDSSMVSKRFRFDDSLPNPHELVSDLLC
In words: Binding affinity to N-terminal His-tagged STK17B kinase domain (25 to 329 residues) (unknown origin) expressed in Escherichia coli by KINOMEscan scanMAX assay.

In data set [2] the target is T1, Serine/threonine-protein kinase 17B. Briefly: Inhibition of N-terminal His-tagged STK17B kinase domain (25 to 329 residues) (unknown origin) expressed in Escherichia coli incubated for 90 mins by Kinase seeker split luciferase assay.
Data set [3] in a line: Stability in mouse liver microsomes assessed as compound remaining at 0.1 mM in presence of NADPH regeneration system after 30 mins by LC-MS/MS analysis. It counts as ADME, Microsome. The settings on record: read-out: Stabilty.
Data set [4] in a line: Kinetic solubility in pH 7.4 PBS. The settings on record: read-out: Kinetic_solubility. The format is physicochemical.
Data set [5] concerns the target T2, Hepatocyte growth factor receptor (Homo sapiens, UniProt P08581). In words: Binding affinity to human MET assessed as displacement of immobilized ligand by KINOMEscan scanMAX assay relative to control.
Data set [6] deals with T3, Serine/threonine-protein kinase Nek6 (Homo sapiens, UniProt Q9HC98). In words: Binding affinity to human NEK6 assessed as displacement of immobilized ligand by KINOMEscan scanMAX assay relative to control.
T3 sequence (Q9HC98 whole entry): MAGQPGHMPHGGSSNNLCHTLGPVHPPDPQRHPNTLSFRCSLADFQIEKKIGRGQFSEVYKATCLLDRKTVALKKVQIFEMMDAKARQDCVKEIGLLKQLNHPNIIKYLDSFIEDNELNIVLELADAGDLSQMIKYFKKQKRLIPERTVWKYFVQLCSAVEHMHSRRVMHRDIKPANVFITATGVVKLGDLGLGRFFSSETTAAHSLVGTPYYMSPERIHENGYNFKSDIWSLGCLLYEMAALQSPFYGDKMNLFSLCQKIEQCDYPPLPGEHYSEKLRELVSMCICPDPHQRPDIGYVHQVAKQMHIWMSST
Data set [7] concerns the target T4, Serine/threonine-protein kinase pim-2 (Homo sapiens, UniProt Q9P1W9). In words: Binding affinity to human PIM2 assessed as displacement of immobilized ligand by KINOMEscan scanMAX assay relative to control.
Data set [8] addresses T5, Wee1-like protein kinase (Homo sapiens, UniProt P30291). In words: Binding affinity to human WEE1 assessed as displacement of immobilized ligand by KINOMEscan scanMAX assay relative to control.
The target in data set [9] is T1, Serine/threonine-protein kinase 17B. In words: Binding affinity to human STK17B assessed as displacement of immobilized ligand by KINOMEscan scanMAX assay relative to control.
The target of data set [10] is T6, Calcium/calmodulin-dependent protein kinase kinase 2 (Homo sapiens, UniProt Q96RR4). Briefly: Binding affinity to human CAMKK2 assessed as displacement of immobilized ligand by KINOMEscan scanMAX assay relative to control.
T6 sequence (Q96RR4 whole entry): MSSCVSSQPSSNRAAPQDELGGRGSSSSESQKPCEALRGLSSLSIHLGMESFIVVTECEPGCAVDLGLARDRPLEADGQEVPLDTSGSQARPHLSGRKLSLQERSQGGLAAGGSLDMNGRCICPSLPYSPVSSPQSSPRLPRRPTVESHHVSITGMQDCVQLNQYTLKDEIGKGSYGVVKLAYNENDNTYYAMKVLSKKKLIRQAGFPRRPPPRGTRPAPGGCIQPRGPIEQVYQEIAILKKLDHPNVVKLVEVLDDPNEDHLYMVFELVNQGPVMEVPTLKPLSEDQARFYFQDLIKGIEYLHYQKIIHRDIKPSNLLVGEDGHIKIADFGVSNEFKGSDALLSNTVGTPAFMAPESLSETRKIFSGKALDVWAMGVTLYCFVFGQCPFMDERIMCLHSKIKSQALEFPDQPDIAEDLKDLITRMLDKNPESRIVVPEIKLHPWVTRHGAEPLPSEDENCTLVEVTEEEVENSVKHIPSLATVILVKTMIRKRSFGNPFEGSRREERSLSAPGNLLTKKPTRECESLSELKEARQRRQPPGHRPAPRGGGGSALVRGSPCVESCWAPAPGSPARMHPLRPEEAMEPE
In data set [11] the target is T7, Aurora kinase B (Homo sapiens, UniProt Q96GD4). Briefly: Binding affinity to human AURKB assessed as displacement of immobilized ligand by KINOMEscan scanMAX assay relative to control.
T7 sequence (Q96GD4 whole entry): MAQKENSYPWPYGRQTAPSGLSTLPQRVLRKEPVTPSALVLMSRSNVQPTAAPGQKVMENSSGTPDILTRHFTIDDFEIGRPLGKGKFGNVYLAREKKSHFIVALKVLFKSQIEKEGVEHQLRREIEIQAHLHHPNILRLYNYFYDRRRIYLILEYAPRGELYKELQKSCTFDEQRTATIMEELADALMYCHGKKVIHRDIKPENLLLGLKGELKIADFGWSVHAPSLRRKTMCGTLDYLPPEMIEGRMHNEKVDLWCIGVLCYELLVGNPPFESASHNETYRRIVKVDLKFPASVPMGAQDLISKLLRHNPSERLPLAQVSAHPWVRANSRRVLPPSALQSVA
Data set [12] deals with T8, Calcium/calmodulin-dependent protein kinase kinase 1 (Homo sapiens, UniProt Q8N5S9). In words: Binding affinity to human CAMKK1 assessed as displacement of immobilized ligand by KINOMEscan scanMAX assay relative to control.
T8 sequence (Q8N5S9 whole entry): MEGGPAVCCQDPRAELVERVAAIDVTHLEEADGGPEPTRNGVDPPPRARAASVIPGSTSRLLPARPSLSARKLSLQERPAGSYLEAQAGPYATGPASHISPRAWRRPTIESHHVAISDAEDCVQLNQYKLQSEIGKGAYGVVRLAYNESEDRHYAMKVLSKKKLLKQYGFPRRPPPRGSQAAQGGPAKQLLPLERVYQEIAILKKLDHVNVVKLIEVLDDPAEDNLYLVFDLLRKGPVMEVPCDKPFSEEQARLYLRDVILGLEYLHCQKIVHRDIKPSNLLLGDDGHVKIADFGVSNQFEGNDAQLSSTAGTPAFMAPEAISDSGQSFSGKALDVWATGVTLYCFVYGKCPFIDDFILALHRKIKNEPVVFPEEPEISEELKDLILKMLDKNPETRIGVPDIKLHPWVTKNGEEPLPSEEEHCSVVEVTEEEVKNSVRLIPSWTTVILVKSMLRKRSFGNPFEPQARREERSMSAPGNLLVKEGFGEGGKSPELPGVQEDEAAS
Data set [13] addresses T9, Serine/threonine-protein kinase 38-like (Homo sapiens, UniProt Q9Y2H1). In words: Binding affinity to human STK38L assessed as displacement of immobilized ligand by KINOMEscan scanMAX assay relative to control.
The target in data set [14] is T10, Serine/threonine-protein kinase 17A (Homo sapiens, UniProt Q9UEE5).
T10 sequence (Q9UEE5 whole entry): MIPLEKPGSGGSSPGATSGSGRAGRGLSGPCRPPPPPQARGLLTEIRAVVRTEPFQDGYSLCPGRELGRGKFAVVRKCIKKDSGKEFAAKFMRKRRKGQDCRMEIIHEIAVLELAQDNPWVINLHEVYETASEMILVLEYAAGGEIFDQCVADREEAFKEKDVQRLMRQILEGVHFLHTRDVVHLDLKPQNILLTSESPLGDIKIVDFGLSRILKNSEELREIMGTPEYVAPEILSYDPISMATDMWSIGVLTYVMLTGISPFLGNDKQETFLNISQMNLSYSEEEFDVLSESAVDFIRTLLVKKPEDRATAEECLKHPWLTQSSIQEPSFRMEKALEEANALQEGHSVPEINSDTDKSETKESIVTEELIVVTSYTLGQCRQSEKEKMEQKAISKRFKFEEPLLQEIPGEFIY
Briefly: Binding affinity to human STK17A assessed as displacement of immobilized ligand by KINOMEscan scanMAX assay relative to control.

Data set [15] deals with T2, Hepatocyte growth factor receptor. In words: Inhibition of human MET in presence of ATP at Km level.
The target of data set [16] is T3, Serine/threonine-protein kinase Nek6. In words: Inhibition of human NEK6 in presence of ATP at Km level.
Data set [17] deals with T4, Serine/threonine-protein kinase pim-2. In words: Inhibition of human PIM2 in presence of ATP at Km level.
In data set [18] the target is T5, Wee1-like protein kinase. In words: Inhibition of human WEE1 in presence of ATP at Km level.
Data set [19] has as its target T1, Serine/threonine-protein kinase 17B. In words: Inhibition of human STK17B in presence of ATP at Km level.
The target of data set [20] is T6, Calcium/calmodulin-dependent protein kinase kinase 2. In words: Inhibition of human CAMKK2 in presence of ATP at Km level.
For data set [21], the target named is T7, Aurora kinase B. Briefly: Inhibition of human AURKB in presence of ATP at Km level.
For data set [22], the target named is T8, Calcium/calmodulin-dependent protein kinase kinase 1. In words: Inhibition of human CAMKK1 in presence of ATP at Km level.
Data set [23] has as its target T9, Serine/threonine-protein kinase 38-like. Briefly: Inhibition of human STK38L in presence of ATP at Km level.
Data set [24] concerns the target T10, Serine/threonine-protein kinase 17A. In words: Inhibition of human STK17A in presence of ATP at Km level.
Data set [25] deals with T6, Calcium/calmodulin-dependent protein kinase kinase 2. In words: Binding affinity to human CAMKK2 incubated for 2 hrs by nano-BRET assay based cellular target engagement assay.
Data set [26] has as its target T7, Aurora kinase B. Briefly: Binding affinity to human AURKB incubated for 2 hrs by nano-BRET assay based cellular target engagement assay.
Data set [27] concerns the target T9, Serine/threonine-protein kinase 38-like. Briefly: Binding affinity to human STK38L incubated for 2 hrs by nano-BRET assay based cellular target engagement assay.
For data set [28], the target named is T10, Serine/threonine-protein kinase 17A. In words: Binding affinity to human STK17A incubated for 2 hrs by nano-BRET assay based cellular target engagement assay.
Data set [29] addresses T1, Serine/threonine-protein kinase 17B.
Data set [30] addresses T10, Serine/threonine-protein kinase 17A. Briefly: Binding affinity to STK17A (unknown origin) by KINOMEscan scanMAX assay.
The target is the same in data set [31]. In words: Inhibition of STK17A (unknown origin) incubated for 90 mins by Kinase seeker split luciferase assay.
Data set [32] concerns the target T11, Homeodomain-interacting protein kinase 4 (Homo sapiens, UniProt Q8NE63).
T11 sequence (Q8NE63 whole entry): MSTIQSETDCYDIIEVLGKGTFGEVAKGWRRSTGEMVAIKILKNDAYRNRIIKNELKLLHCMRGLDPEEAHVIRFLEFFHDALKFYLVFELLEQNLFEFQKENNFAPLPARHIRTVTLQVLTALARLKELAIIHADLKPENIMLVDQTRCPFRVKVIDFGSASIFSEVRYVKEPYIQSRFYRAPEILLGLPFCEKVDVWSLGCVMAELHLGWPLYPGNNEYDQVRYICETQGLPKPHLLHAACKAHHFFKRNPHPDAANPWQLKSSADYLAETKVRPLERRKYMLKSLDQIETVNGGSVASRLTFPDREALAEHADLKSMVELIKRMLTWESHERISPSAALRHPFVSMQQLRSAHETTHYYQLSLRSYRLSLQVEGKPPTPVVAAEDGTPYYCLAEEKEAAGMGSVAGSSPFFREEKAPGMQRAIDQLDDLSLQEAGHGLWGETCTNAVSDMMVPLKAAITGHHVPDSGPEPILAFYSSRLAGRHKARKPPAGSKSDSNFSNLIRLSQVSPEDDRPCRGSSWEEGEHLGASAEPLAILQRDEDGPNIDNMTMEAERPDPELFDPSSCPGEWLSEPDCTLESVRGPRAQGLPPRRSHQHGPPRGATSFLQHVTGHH
In words: Binding affinity to human HIPK4 by KINOMEscan scanMAX assay.

T9 sequence (Q9Y2H1 whole entry): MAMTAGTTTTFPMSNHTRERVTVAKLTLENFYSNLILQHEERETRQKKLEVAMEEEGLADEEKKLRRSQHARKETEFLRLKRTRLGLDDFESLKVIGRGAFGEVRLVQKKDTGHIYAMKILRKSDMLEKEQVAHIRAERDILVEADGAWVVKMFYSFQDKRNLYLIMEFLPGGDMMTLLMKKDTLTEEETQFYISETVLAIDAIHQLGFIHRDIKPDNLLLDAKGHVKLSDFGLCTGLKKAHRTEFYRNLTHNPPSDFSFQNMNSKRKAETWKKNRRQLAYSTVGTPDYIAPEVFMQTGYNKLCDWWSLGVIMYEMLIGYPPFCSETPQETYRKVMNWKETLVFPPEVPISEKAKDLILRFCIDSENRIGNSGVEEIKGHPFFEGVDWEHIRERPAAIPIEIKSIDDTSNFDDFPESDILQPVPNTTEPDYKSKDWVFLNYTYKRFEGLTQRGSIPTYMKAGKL
T4 sequence (Q9P1W9 whole entry): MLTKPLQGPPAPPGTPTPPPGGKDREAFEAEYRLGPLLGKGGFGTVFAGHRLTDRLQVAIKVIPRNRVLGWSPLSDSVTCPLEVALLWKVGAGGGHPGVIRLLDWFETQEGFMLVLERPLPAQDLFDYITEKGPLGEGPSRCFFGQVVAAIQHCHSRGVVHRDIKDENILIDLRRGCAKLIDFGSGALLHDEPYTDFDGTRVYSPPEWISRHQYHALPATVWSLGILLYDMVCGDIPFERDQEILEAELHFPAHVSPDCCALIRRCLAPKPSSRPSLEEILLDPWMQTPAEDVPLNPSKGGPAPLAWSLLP
T5 sequence (P30291 whole entry): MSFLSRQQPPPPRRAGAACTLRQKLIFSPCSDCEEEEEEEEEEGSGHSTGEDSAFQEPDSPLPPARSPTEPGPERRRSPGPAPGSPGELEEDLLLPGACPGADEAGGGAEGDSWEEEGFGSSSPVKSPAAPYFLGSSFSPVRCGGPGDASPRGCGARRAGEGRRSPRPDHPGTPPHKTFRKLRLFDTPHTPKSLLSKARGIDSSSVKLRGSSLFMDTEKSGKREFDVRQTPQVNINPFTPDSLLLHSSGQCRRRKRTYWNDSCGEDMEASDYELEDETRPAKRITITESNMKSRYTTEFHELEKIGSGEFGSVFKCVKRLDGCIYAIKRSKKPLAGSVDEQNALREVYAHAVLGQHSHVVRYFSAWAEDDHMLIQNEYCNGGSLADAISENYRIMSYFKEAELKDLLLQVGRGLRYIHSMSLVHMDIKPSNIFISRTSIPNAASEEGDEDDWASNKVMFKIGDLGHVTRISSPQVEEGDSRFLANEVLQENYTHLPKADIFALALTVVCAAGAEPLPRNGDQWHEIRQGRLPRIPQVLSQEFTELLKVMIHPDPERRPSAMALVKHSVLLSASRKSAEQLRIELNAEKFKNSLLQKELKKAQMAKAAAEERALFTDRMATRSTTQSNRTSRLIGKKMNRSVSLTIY
T2 sequence (P08581 whole entry): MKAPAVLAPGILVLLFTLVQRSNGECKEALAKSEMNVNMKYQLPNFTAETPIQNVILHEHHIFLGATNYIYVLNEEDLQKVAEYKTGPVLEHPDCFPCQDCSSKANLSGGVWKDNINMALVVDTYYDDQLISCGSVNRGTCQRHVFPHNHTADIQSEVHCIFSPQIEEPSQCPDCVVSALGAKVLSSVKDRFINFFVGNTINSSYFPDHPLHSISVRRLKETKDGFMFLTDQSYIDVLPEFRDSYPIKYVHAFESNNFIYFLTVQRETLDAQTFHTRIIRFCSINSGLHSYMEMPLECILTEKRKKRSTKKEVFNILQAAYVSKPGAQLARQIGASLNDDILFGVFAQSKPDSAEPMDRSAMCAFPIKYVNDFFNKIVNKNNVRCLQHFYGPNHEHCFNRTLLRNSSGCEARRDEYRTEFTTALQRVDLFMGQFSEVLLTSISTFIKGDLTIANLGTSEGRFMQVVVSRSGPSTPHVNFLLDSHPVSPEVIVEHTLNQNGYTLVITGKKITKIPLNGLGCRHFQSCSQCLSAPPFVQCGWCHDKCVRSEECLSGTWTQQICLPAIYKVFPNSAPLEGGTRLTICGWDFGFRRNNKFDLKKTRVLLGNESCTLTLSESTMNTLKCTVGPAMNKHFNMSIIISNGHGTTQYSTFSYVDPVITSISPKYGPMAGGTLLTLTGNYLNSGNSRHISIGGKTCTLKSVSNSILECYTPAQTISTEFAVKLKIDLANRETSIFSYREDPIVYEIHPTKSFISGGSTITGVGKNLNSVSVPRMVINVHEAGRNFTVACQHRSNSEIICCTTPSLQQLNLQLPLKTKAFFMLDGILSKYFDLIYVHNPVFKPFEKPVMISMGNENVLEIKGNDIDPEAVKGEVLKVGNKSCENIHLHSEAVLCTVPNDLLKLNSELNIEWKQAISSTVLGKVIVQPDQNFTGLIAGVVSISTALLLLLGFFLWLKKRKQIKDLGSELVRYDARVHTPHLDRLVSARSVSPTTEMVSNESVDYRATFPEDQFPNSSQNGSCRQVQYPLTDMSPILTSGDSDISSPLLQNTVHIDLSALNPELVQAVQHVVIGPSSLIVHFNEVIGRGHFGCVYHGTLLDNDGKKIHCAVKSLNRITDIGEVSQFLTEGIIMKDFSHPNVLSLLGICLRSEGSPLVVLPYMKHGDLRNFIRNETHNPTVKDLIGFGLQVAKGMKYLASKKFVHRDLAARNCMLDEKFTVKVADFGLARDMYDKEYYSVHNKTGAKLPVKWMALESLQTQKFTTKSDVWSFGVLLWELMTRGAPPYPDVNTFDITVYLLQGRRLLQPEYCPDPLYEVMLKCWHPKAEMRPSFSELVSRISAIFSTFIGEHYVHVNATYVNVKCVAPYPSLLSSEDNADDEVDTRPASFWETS

Turning to `O=C(O)CSc1ncnc2cc(-c3cc4ccccc4s3)sc12`, the Kd in data set [1] is 5.6 nM; in data set [5], over 10000 nM; in [6] it was over 10000 nM; in [7], 1500 nM; at Wee1-like protein kinase [8], over 10000 nM; in data set [9] it was 5.6 nM. Besides, the dissociation constant (Kd) in [10] was 21 nM; at Aurora kinase B [11] it was 110 nM; in data set [12], 49 nM; in data set [13], over 10000 nM; in data set [14] it was 440 nM. Moreover, the IC50 is 34 nM in data set [2]; over 10000 nM in data set [15]; over 10000 nM in [16]; over 10000 nM in data set [17]; over 10000 nM at Wee1-like protein kinase [18]; 34 nM in [19]. For the same compound, the half-maximal inhibitory concentration (IC50) in [20] is over 10000 nM; on Aurora kinase B [21], 8900 nM; in [22] it was 5200 nM; in data set [23] it was over 10000 nM; in [24] it was 4700 nM; in [25], 2400 nM. Moreover, the IC50 was over 10000 nM at Aurora kinase B [26], over 10000 nM in [27], over 10000 nM in data set [28] and 190 nM in [29]. For the same compound, the remaining at 0.5 h, 100 µM in data set [3] was 63%. In addition, the solubility kinetic in data set [4] was found to be 5 µg/mL (≈ 13.9 µM).
Regarding `O=C(O)CSc1ncnc2sc(-c3cc4ccccc4s3)cc12`, the Kd is 9800 nM in [30], 910 nM in data set [1] and 290 nM in [32]. For the same compound, the IC50 is 4800 nM in data set [2], over 10000 nM in data set [31] and over 10000 nM in data set [29].
